Measured values from PubChem BioAssay (NCI).
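Values below derive from 48-hour exposures of cells grown in 96-well plates, with endpoints linearly interpolated between the two concentrations bracketing the appropriate inhibition level. Abbreviation: GI50, concentration required for 50% inhibition of growth. At the TGI there is no net growth.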

Experiments:
Experiment in all cases: DTP human tumour cell line panel, 48 h
DMS 273 small cell lung = system: DMS 273 small cell lung
HCT-15 colon = system: HCT-15 colon
HOP-62 NSCLC = system: HOP-62 NSCLC
HT29 colon = system: HT29 colon
KM20L2 colon = system: KM20L2 colon
NCI-H226 lung = system: NCI-H226 lung
NCI-H460 lung = system: NCI-H460 lung
RXF 393 renal = system: RXF 393 renal
SF-268 CNS = system: SF-268 CNS
SN12C renal = system: SN12C renal

With `COc1cc(-c2ccc(NC(=O)SCCC(=O)O)cc2OC)ccc1NC(=O)SCCC(=O)O` the TGI (DMS 273 small cell lung) was > 100 µM, the TGI (HCT-15 colon) was > 100 µM and the TGI (HOP-62 NSCLC) was > 100 µM. The TGI (HT29 colon) was > 100 µM, the TGI (KM20L2 colon) was > 100 µM and the TGI (NCI-H226 lung) was > 100 µM. For the same molecule, the TGI (NCI-H460 lung) was > 100 µM, the TGI (RXF 393 renal) was > 100 µM and the TGI (SF-268 CNS) was > 100 µM. The TGI (SN12C renal) was > 100 µM.
For `Cc1cc(C)c2c(c1)N[S@@](=O)S2`, the TGI (DMS 273 small cell lung) was 38.2 µM, the TGI (HCT-15 colon) was 33 µM and the TGI (HOP-62 NSCLC) was > 100 µM. The TGI (HT29 colon) was 41.1 µM, the TGI (KM20L2 colon) was > 100 µM and the TGI (NCI-H226 lung) was 38.5 µM. The TGI (NCI-H460 lung) was 46.5 µM, the TGI (RXF 393 renal) was 26.3 µM and the TGI (SF-268 CNS) was 34.5 µM. For the same molecule, the TGI (SN12C renal) was 36.7 µM.
With `O=C1C2c3[nH]c4ccccc4c3C3CCCCCC3C2C(=O)N1c1ccccc1` (stereo not given) the TGI (DMS 273 small cell lung) was > 100 µM, the TGI (HCT-15 colon) was > 100 µM and the TGI (HOP-62 NSCLC) was 41.7 µM. For the same molecule, the TGI (HT29 colon) was > 100 µM, the TGI (KM20L2 colon) was > 100 µM and the TGI (NCI-H226 lung) was > 64.3 µM. For the same molecule, the TGI (NCI-H460 lung) was > 77.4 µM, the TGI (RXF 393 renal) was 37.7 µM and the TGI (SF-268 CNS) was 99.8 µM. The TGI (SN12C renal) was > 36.5 µM.
For `CC(=O)[CH-]C(=O)c1ccccc1.CC(=O)[CH-]C(=O)c1ccccc1.CC(C)CCC[C@H](C)C1CCC2[C@@H]3CC=C4C[C@@H]([O-])CC[C@]4(C)C3CC[C@@]21C.CC(C)CCC[C@H](C)C1CCC2[C@@H]3CC=C4C[C@@H]([O-])CC[C@]4(C)C3CC[C@@]21C.Cl.[Ti+4]` (stereo not given in full), the GI50 (DMS 273 small cell lung) was > 25 µM, the TGI (DMS 273 small cell lung) was > 25 µM and the GI50 (HCT-15 colon) was > 25 µM. For the same molecule, the TGI (HCT-15 colon) was > 25 µM, the GI50 (HOP-62 NSCLC) was > 25 µM and the TGI (HOP-62 NSCLC) was > 25 µM. The GI50 (HT29 colon) was > 25 µM, the TGI (HT29 colon) was > 25 µM and the GI50 (KM20L2 colon) was > 25 µM. For the same molecule, the TGI (KM20L2 colon) was > 25 µM, the GI50 (NCI-H226 lung) was > 25 µM and the TGI (NCI-H226 lung) was > 25 µM. For the same molecule, the GI50 (NCI-H460 lung) was > 25 µM, the TGI (NCI-H460 lung) was > 25 µM and the GI50 (RXF 393 renal) was > 25 µM. For the same molecule, the TGI (RXF 393 renal) was > 25 µM, the GI50 (SF-268 CNS) was > 25 µM and the TGI (SF-268 CNS) was > 25 µM. For the same molecule, the GI50 (SN12C renal) was > 25 µM and the TGI (SN12C renal) was > 25 µM.
With `COc1cc2c(cc1O)CN1CCC23C=C[C@@H](O)CC13` (stereo not given in full) the TGI (DMS 273 small cell lung) was > 100 µM, the TGI (HCT-15 colon) was > 100 µM and the TGI (HOP-62 NSCLC) was > 100 µM. The TGI (HT29 colon) was > 100 µM, the TGI (KM20L2 colon) was > 100 µM and the TGI (NCI-H226 lung) was > 100 µM. The TGI (NCI-H460 lung) was > 100 µM, the TGI (RXF 393 renal) was > 100 µM and the TGI (SF-268 CNS) was > 100 µM. For the same molecule, the TGI (SN12C renal) was > 100 µM.
